Assay results: patent US8895535B2, “Pyrrolidinones as MetAP-2 inhibitors” (Merck Patent GmbH, priority 2010, dated 2014)

Target: MetAP-2 (Homo sapiens, UniProt P50579)
Assay: MetAP-2 activity measurement (coupled enzymatic reactions, substrate Met-Arg-Ser)
Format: biochemical
Conditions: Inhibition of MetAP-2; read-out: IC50 enzyme
Protocol: MetAP-2 Activity Measurement
The MetAP-2 activity is determined by coupling enzymatic reactions. The tripeptide Met-Arg-Ser (MAS) is employed as substrate. The methionine liberated is firstly converted into Metox and H2O2 by L-aminooxidase (AAO).
MetAP-2 activity can be recorded continuously as kinetics. The reaction scheme illustrates that one mol of dianisidineox is formed per mol of methionene. The MetAP-2 enzyme activity can therefore be calculated directly as Δ absorption per time unit. […] of the MetAP-2 activity (mol of Met/time unit) is possible with the aid of the dianisidineox extinction coefficient.
The change in extinction per time unit is depicted graphically and a slope calculation is carried out in the visually linear region of the reaction.

Chain of MetAP-2 (P50579 whole entry, species assumed): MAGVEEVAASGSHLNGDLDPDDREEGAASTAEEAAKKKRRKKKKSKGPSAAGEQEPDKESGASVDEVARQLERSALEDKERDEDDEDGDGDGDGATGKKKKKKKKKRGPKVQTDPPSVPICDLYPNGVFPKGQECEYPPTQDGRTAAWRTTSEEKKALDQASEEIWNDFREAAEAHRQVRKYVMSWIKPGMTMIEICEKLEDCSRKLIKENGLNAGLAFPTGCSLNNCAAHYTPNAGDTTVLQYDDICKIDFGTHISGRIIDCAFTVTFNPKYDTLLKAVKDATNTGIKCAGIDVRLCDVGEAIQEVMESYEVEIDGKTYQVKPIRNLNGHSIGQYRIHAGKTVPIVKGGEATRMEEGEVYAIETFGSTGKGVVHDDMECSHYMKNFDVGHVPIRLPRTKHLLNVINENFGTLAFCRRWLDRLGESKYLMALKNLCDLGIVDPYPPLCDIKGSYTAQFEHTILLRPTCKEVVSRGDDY

| IC50 [nM] | SMILES |
| --- | --- |
| 10 to 1000 | O=C(NCc1cccc(Br)c1)[C@@]1(O)CCN(c2ccc(F)cc2)C1=O [A38] |
| > 10000 | CCc1nnn(CCNC(=O)[C@]2(O)CCN(c3ccccc3)C2=O)n1 [A42] |
| 1000 to 10000 | Cc1nccn1-c1cccc(CNC(=O)[C@@]2(O)CCN(c3ccccc3)C2=O)c1 [A9] |
| 10 to 1000 | O=C(NCc1cc(F)cc(C(F)(F)F)c1)[C@@]1(O)CCN(c2ccc(F)cc2)C1=O [A162] |
| > 10000 | O=C(NCc1cccc(Br)c1)[C@]1(O)CCN(c2cccc3ccccc23)C1=O [A53] |
| 10 to 1000 | Cc1nnc(-c2ccc(N3CC[C@](O)(C(=O)NCc4cc(F)cc(Cl)c4)C3=O)cc2)o1 [A267] |
| 10 to 1000 | O=C(NCc1ccc(F)c(Br)c1)[C@@]1(O)CCN(c2ccccc2)C1=O [A23] |
| 10 to 1000 | O=C(NCc1cccc(Br)c1)[C@@]1(O)CCN(c2ccc3ccccc3c2)C1=O [A54] |
| 1000 to 10000 | CC(C)C(C)NC(=O)[C@@]1(O)CCN(c2ccccc2)C1=O (stereo partly shown) [A326] |
| 10 to 1000 | O=C(NCc1cc(Cl)ccc1F)[C@@]1(O)CCN(c2ccccc2)C1=O [A49] |
| > 10000 | O=C(N1CCCCC1)[C@@]1(O)CCN(c2ccccc2)C1=O [A308] |
| 10 to 1000 | CS(=O)(=O)N1CCc2cc(N3CCC(O)(C(=O)NCc4cc(F)cc(Cl)c4)C3=O)ccc21 (stereo not shown) [A253] |
| > 10000 | CC(C)(C)c1cnc(CCNC(=O)[C@@]2(O)CCN(c3ccccc3)C2=O)o1 [A2] |
| 1000 to 10000 | O=C(NCc1ccc2c(c1)OCO2)[C@@]1(O)CCN(c2ccccc2)C1=O [A295] |
| 10 to 1000 | O=C(NCc1cccc(C(F)(F)F)c1)[C@@]1(O)CCN(c2ccccc2)C1=O [A28] |
| > 10000 | O=C(NCc1cc(C(F)(F)F)cc(C(F)(F)F)c1)[C@@]1(O)CCN(c2ccccc2)C1=O [A165] |
| 10 to 1000 | O=C(NCc1cccc(Cl)c1F)[C@@]1(O)CCN(c2ccc(F)c(Cl)c2)C1=O [A56] |
| 10 to 1000 | O=C(NCc1cccc(Cl)c1F)[C@@]1(O)CCN(c2ccc(F)cc2)C1=O [A58] |
| 1000 to 10000 | O=C(NCc1cccc(Br)c1)[C@]1(O)CCN(c2ccc(F)cc2)C1=O [A41] |
| > 10000 | O=C(NCc1cccc(Br)c1)[C@]1(O)CCN(c2ccccc2)C1=O [A79] |

| IC50 [nM] | SMILES |
| --- | --- |
| 10 to 1000 | O=C(NCc1cccc(Cl)c1F)[C@@]1(O)CCN(c2cccc(Cl)c2)C1=O [A57] |
| 10 to 1000 | Cn1cc(N2CC[C@](O)(C(=O)NCc3cccc(Cl)c3F)C2=O)cn1 [A170] |
| > 10000 | O=C(NCCc1cccs1)[C@@]1(Cl)CCN(c2ccccc2)C1=O [A61] |
| 10 to 1000 | O=C(NCCc1cccs1)[C@@]1(O)CCN(c2cccc(Cl)c2)C1=O [A37, (S)-1-(3-chlorophenyl)-3-hydroxy-2-oxopyrrolidine-3-carboxylic acid (2-thiophen-2-ylethyl)amide] |
| 1000 to 10000 | O=C(NCc1cccc(-c2nccs2)c1)[C@@]1(O)CCN(c2ccccc2)C1=O [A36] |
| 1000 to 10000 | O=C(NCCc1cccs1)[C@]1(O)CCN(c2ccc(Br)cc2)C1=O [A77] |
| > 10000 | O=C(NCCN1CCCC1)[C@@]1(O)CCN(c2ccccc2)C1=O [A45] |
| 10 to 1000 | O=C(NCCc1cccs1)[C@@]1(O)CCN(c2ccc(F)cc2F)C1=O [A31] |
| 10 to 1000 | O=C(NCc1cc(F)cc(C(F)(F)F)c1)[C@@]1(O)CCN(c2ccccc2)C1=O [A164] |
| 10 to 1000 | O=C(NC1COc2ccccc2C1)[C@@]1(O)CCN(c2ccccc2)C1=O (stereo partly shown) [A320] |
| > 10000 | O=CN1CCc2cc(N3CC[C@@](O)(C(=O)NCc4cc(F)cc(Cl)c4)C3=O)ccc21 [A285] |
| 10 to 1000 | O=C(NCCc1cc(F)cc(Cl)c1)[C@@]1(O)CCN(c2ccc(C(F)(F)F)cc2)C1=O [A233] |
| 10 to 1000 | O=C(NCCc1cccs1)[C@]1(O)CCN(c2ccc3ccccc3c2)C1=O [A69] |
| 1000 to 10000 | CC(C)CNC(=O)[C@@]1(O)CCN(c2ccccc2)C1=O [A305] |
| 10 to 1000 | CCCCNC(=O)[C@@]1(O)CCN(c2ccccc2)C1=O [A310] |
| 10 to 1000 | O=C(NCc1cccc(Br)c1)[C@@]1(O)CCN(c2ccc(F)c(Cl)c2)C1=O [A50] |
| 10 to 1000 | O=CN1CCc2cc(N3CC[C@](O)(C(=O)NCc4cc(F)cc(Cl)c4)C3=O)ccc21 [A282] |
| 1000 to 10000 | O=C(NCCn1cccn1)[C@@]1(O)CCN(c2ccccc2)C1=O [A44] |
| 10 to 1000 | O=C(NCc1ccc(F)c(Cl)c1F)[C@@]1(O)CCN(c2ccccc2)C1=O [A46] |
| > 10000 | CN(Cc1ccsc1)C(=O)[C@@]1(O)CCN(c2ccccc2)C1=O [A321] |
